Measured values from PubChem BioAssay AID588650 (The Scripps Research Institute Molecular Screening Center, 2011).

Molecular target: Epidermal growth factor receptor (Homo sapiens) (UniProt P00533)
Test: decrease of p-EGFR levels in colorectal cells – HCT116 cells, chemiluminescent western blot, powder samples, counter-screen for KLF5 inhibitor project, late-stage follow-up (AID 588650)
Settings: HCT116 phospho-EGFR western blot, 24 h; at 10 µM; stronger effect = higher value

Chain of Epidermal growth factor receptor (Homo sapiens) (P00533 whole entry, looked up): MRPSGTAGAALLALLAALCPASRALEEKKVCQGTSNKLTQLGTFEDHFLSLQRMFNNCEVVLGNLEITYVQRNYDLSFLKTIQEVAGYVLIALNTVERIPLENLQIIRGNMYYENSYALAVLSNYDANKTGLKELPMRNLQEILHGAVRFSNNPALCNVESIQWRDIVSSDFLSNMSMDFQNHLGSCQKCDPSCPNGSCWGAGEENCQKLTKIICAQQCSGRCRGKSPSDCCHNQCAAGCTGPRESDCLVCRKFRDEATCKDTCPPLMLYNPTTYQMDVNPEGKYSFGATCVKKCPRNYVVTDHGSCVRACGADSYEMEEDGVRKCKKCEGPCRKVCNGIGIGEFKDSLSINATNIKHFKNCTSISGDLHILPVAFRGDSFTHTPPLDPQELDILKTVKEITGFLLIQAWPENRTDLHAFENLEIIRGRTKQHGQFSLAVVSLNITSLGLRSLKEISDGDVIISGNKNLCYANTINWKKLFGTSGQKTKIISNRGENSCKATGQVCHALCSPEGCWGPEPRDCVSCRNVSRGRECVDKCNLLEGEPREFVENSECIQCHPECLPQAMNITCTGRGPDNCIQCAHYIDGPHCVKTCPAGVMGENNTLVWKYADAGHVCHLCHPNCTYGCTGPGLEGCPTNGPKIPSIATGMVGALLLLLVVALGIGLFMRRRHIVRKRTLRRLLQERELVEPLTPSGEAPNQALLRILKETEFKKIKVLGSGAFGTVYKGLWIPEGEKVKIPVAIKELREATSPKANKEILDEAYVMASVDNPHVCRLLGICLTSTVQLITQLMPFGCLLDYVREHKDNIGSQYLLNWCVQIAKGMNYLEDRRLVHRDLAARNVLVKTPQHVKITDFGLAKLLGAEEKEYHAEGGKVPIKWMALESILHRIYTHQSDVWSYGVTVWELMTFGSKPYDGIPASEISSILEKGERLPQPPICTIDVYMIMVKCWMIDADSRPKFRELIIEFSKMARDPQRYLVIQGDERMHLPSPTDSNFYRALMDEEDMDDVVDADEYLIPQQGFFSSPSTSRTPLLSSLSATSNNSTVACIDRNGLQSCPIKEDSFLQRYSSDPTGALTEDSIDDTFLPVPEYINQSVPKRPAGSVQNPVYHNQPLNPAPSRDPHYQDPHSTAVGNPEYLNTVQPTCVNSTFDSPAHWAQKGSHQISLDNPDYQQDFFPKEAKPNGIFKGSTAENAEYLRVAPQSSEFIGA

| Structure (SMILES) | inhibition [%] |
| --- | --- |
| CN(C(=O)COC(=O)/C=C/c1cccc([N+](=O)[O-])c1)C1CCS(=O)(=O)C1 (stereo not drawn) | -64.9 |
| CN(C(=O)CNC(=O)/C=C/c1cccc(Cl)c1)C1CCS(=O)(=O)C1 (stereo not drawn) | -53.2 |
| CN(C(=O)CNC(=O)/C=C/c1cccc(Cl)c1)C1CCS(=O)(=O)CC1 | -254 |
